From ChEMBL document CHEMBL5442168, “ASAP - In vitro liver microsomal stability” (2024) come the findings set out here.

“And” between values parts separate entries of the source, which are not always exact repeats. Identical values can stand only once.

Data set [1] can be described thus: Human liver microsomal stability of compound in microsomal protein, PBS buffer pH 7.4, NADPH, glucose-6-phosphate and glucose-6-phosphate dehydrogenase media. Aliquotes were taken at 5 time points and after stopping the reaction, supernatants were analyzed using HPLC coupled with a tandem mass spectrometer. The elimination constant, half-life, and intrinsic clearance are determined as results using linear regression analysis. The assay has been performed by Enamine biological services, Bienta Ltd.The protocol is publicly available: dx.doi.org/10.17504/protocols.io.5qpvokdb9l4o/v1. In kind it is ADME, microsomes, Microsome. Particulars: for half-life / microsomal CLint: liver microsomes; for Remaining / Remaining (without cofactor) / CLint / T1/2: microsomes.

Data set [2] is described as follows: Mouse liver microsomal stability of compound in microsomal protein, PBS buffer pH 7.4, NADPH, glucose-6-phosphate and glucose-6-phosphate dehydrogenase media. Aliquotes were taken at 5 time points and after stopping the reaction, supernatants were analyzed using HPLC coupled with a tandem mass spectrometer. The elimination constant, half-life, and intrinsic clearance are determined as results using linear regression analysis. The assay has been performed by Enamine biological services, Bienta Ltd.The protocol is publicly available: dx.doi.org/10.17504/protocols.io.5qpvokdb9l4o/v1. In kind it is ADME, microsomes, Microsome. Particulars: for half-life / microsomal CLint: liver microsomes; for Remaining / Remaining (without cofactor) / CLint / T1/2: microsomes.
Wherever Remaining (without cofactor) is given: time not given here.
Wherever Remaining is given: time not given here.

Consider `COc1ccc([C@@H](NC(=O)c2[nH]cnc3nccc2-3)C(C)c2nnn[nH]2)cc1` (stereo not given in full), for which, in data set [1], the half-life was 799 min, the microsomal CLint stood at 2 µL/min/mg, the Remaining is listed as 92% and the “Remaining (without cofactor)” value is listed as 103%. Moreover, in data set [2], the half-life was determined as 2880 min, the microsomal CLint amounted to 1 µL/min/mg, the Remaining turned out to be 99% and the “Remaining (without cofactor)” value came out at 92%.

With `CC(C)[C@@H](Nc1ncnc2[nH]c(-c3cnn(CC(N)=O)c3)cc12)c1ccc2c(c1)OCCO2`, in data set [1], the CLint is 99 µL/min/mg and 238 µL/min/mg; the “Remaining (without cofactor)” value was 103% and 90%; the T1/2 is 16.9 min and 7 min. Also, in data set [2], the half-life is 41.1 min; the microsomal CLint stood at 41 µL/min/mg; the CLint was 42 µL/min/mg; the Remaining was 54% and 49%. Further, in data set [2], the “Remaining (without cofactor)” value was 87% and 98%; the T1/2 came out at 40 min.

Take `CC(C)[C@H](Nc1ncnc2[nH]c(C(=O)N[C@H]3CCN(C)C3)cc12)c1ccc2c(c1)S(=O)(=O)CCC2`: in data set [1], the half-life was 150 min, the microsomal CLint was determined as 11 µL/min/mg, the Remaining worked out at 80% and the “Remaining (without cofactor)” value was 98%. In data set [2], the half-life stood at 1540 min, the microsomal CLint amounted to 1 µL/min/mg, the Remaining was determined as 98% and the “Remaining (without cofactor)” value was 97%.

In the case of `CC(C)[C@H](Nc1ncnc2[nH]c(-c3cnn(C)c3C#N)cc12)c1ccc2c(c1)NC(=O)CO2`, in data set [1], the half-life came out at 14.6 min, the microsomal CLint was 115 µL/min/mg, the Remaining was determined as 16% and the “Remaining (without cofactor)” value stood at 101%. For the same compound, in data set [2], the half-life was found to be 20.7 min, the microsomal CLint is 81 µL/min/mg, the Remaining worked out at 27% and the “Remaining (without cofactor)” value turned out to be 96%.

Regarding `CCNC(=O)c1cc2c(N[C@@H](c3ccc4c(c3)S(=O)(=O)CCO4)C(C)C)ncnc2[nH]1`, in data set [1], the half-life is 26.2 min, the microsomal CLint was 64 µL/min/mg, the Remaining came out at 33% and the “Remaining (without cofactor)” value was 95%. In data set [2], the half-life came out at 65.5 min, the microsomal CLint came to 26 µL/min/mg, the Remaining amounted to 66% and the “Remaining (without cofactor)” value was found to be 99%.

On to `CNC(=O)c1cc2c(N[C@@H](c3ccc4c(c3)NC(=O)CO4)C(C)C)ncnc2[nH]1`, for which the “Remaining (without cofactor)” value in data set [1] is 94% and 96%. In data set [2], the half-life was 84.4 min; the microsomal CLint was determined as 20 µL/min/mg; the CLint was determined as 33 µL/min/mg; the Remaining was 71% and 57%. Further, in data set [2], the “Remaining (without cofactor)” value was 103% and 99%; the T1/2 was found to be 51.2 min.

Turning to `CC(C)[C@H](Nc1ncnc2[nH]c(-c3cnn(C)c3C#N)cc12)c1ccc2c(n1)OCCO2`, in data set [1], the half-life is 100 min, the microsomal CLint stood at 17 µL/min/mg, the Remaining stood at 78% and the “Remaining (without cofactor)” value is 116%. In data set [2], the half-life was found to be 20.7 min, the intrinsic metabolic clearance (microsomal CLint) was 81 µL/min/mg, the Remaining is reported as 27% and the “Remaining (without cofactor)” value came out at 96%.

Regarding `CC(C)[C@@H](Nc1ncnc2[nH]c(-c3cnn(C)c3C#N)cc12)c1ccc2c(c1)NC(=O)CO2`, in data set [1], the half-life was determined as 16.6 min; the microsomal CLint was 100 µL/min/mg; the CLint worked out at 52 µL/min/mg; the Remaining was 18% and 44%. Also, in data set [1], the “Remaining (without cofactor)” value is 93% and 109%; the T1/2 is on record as 32.3 min. Besides, in data set [2], the half-life turned out to be 9.4 min; the microsomal CLint stood at 177 µL/min/mg; the CLint came out at 147 µL/min/mg; the Remaining is 6% and 10%. Moreover, in data set [2], the “Remaining (without cofactor)” value was 97% and 102%; the T1/2 amounted to 11.3 min.

With `CC(C)[C@@H](Nc1ncnc2[nH]c(-c3cnn(CC(N)=O)c3)cc12)c1ccc2c(c1)S(=O)(=O)CCC2`, in data set [1], the half-life was 14.4 min, the microsomal CLint is 116 µL/min/mg, the CLint came to 115 µL/min/mg and the Remaining is reported as 15%. In data set [1], the “Remaining (without cofactor)” value was 95% and 103%; the T1/2 is reported as 14.5 min. In data set [2], the half-life is 27.4 min; the microsomal CLint was found to be 61 µL/min/mg; the CLint was found to be 96 µL/min/mg; the Remaining was 37% and 20%. Further, in data set [2], the “Remaining (without cofactor)” value is 109% and 111%; the T1/2 came out at 17.4 min.

With `CC(C)[C@@H](Nc1ncnc(N)c1Cl)c1ccc2c(c1)S(=O)(=O)CCC2`, in data set [1], the half-life was found to be 21 min, the microsomal CLint turned out to be 79 µL/min/mg, the Remaining is listed as 27% and the “Remaining (without cofactor)” value worked out at 101%. For the same compound, in data set [2], the half-life was 8.2 min, the microsomal CLint is 204 µL/min/mg, the Remaining worked out at 4% and the “Remaining (without cofactor)” value came out at 102%.

In the case of `CC(C)[C@@H](Nc1ncnc2[nH]c(C(=O)N[C@H]3CCN(C)C3)cc12)c1ccc2c(c1)S(=O)(=O)CCC2`, in data set [1], the half-life came to 64 min, the microsomal CLint turned out to be 26 µL/min/mg, the Remaining is given as 66% and the “Remaining (without cofactor)” value turned out to be 107%. For the same compound, in data set [2], the half-life came to 434 min, the microsomal CLint is 4 µL/min/mg, the Remaining was found to be 92% and the “Remaining (without cofactor)” value was 92%.

In the case of `CC(C)[C@@H](Nc1ncnc2[nH]ccc12)c1ccc2c(c1)S(=O)(=O)CCC2`, in data set [1], the half-life stood at 44.7 min; the microsomal CLint came to 37 µL/min/mg; the CLint turned out to be 21 µL/min/mg; the Remaining was 53% and 69%. Moreover, in data set [1], the “Remaining (without cofactor)” value is given as 99% and the T1/2 is on record as 78.6 min. In addition, in data set [2], the CLint was 138 µL/min/mg and 55 µL/min/mg; the “Remaining (without cofactor)” value was 103% and 117%; the T1/2 was 12.1 min and 30.4 min.

Regarding `CCNC(=O)c1cc2c(N[C@H](c3ccc4c(c3)S(=O)(=O)CCC4)C(C)C)ncnc2[nH]1`, in data set [1], the half-life was 15.4 min, the microsomal CLint was determined as 109 µL/min/mg, the Remaining is 17% and the “Remaining (without cofactor)” value stood at 102%. In data set [2], the half-life was found to be 26.3 min, the microsomal CLint was found to be 64 µL/min/mg, the Remaining is given as 34% and the “Remaining (without cofactor)” value came out at 97%.

For the compound `CC(C)[C@@H](Nc1ncnc2[nH]c(-c3cnn(C)c3C#N)cc12)c1ccc2c(n1)NC(=O)CO2`, in data set [1], the half-life was determined as 23.7 min; the microsomal CLint was 70 µL/min/mg; the CLint worked out at 51 µL/min/mg; the Remaining was 30% and 43%. Further, in data set [1], the “Remaining (without cofactor)” value is 97% and 98%; the T1/2 stood at 32.6 min. Further, in data set [2], the half-life amounted to 11.5 min; the microsomal CLint was 145 µL/min/mg; the CLint was 189 µL/min/mg; the Remaining is 9% and 5%. Moreover, in data set [2], the “Remaining (without cofactor)” value is 92% and the T1/2 was determined as 8.8 min.

In data set [1], `CC(C)[C@@H](Nc1ncnc2[nH]c(-c3cnn(CC(N)=O)c3)cc12)c1ccc2c(n1)OCCO2` came in with a half-life of 120 min, an intrinsic metabolic clearance (microsomal CLint) of 14 µL/min/mg, a CLint of 18 µL/min/mg and a Remaining of 77%. In data set [1], the “Remaining (without cofactor)” value is 95% and the T1/2 worked out at 91.8 min. Moreover, in data set [2], the half-life stood at 145 min; the microsomal CLint is 12 µL/min/mg; the CLint came to 9 µL/min/mg; the Remaining was 83% and 90%. Also, in data set [2], the “Remaining (without cofactor)” value was 104% and 102%; the T1/2 was 182.3 min.

For the compound `CC(C)[C@H](Nc1ncnc2[nH]ccc12)c1ccc2c(c1)NC(=O)CO2`, in data set [1], the half-life stood at 160 min, the microsomal CLint was 10 µL/min/mg, the Remaining stood at 86% and the “Remaining (without cofactor)” value came out at 95%. Besides, in data set [2], the half-life turned out to be 45.1 min, the microsomal CLint came out at 37 µL/min/mg, the Remaining turned out to be 54% and the “Remaining (without cofactor)” value came out at 89%.

`CNCc1cc(-c2cc3c(N[C@@H](c4ccc5c(c4)S(=O)(=O)CCC5)C(C)C)ncnc3[nH]2)co1`: in data set [1], the CLint was 57 µL/min/mg and 133 µL/min/mg; the “Remaining (without cofactor)” value is 110% and 95%; the T1/2 is 29.4 min and 12.6 min. Further, in data set [2], the half-life amounted to 32.2 min; the microsomal CLint is 52 µL/min/mg; the CLint was 54 µL/min/mg; the Remaining is 41% and 35%. Moreover, in data set [2], the “Remaining (without cofactor)” value is 108% and 101%; the T1/2 is reported as 30.9 min.

On to `CC(C)[C@H](Nc1ncnc2[nH]c(-c3cnn(CC(=O)N(C)C)c3)cc12)c1ccc2c(c1)S(=O)(=O)CCC2`, for which, in data set [1], the half-life is 18.1 min, the microsomal CLint is 92 µL/min/mg, the Remaining came out at 22% and the “Remaining (without cofactor)” value came to 97%. Also, in data set [2], the half-life was found to be 13.5 min, the microsomal CLint stood at 124 µL/min/mg, the Remaining is 13% and the “Remaining (without cofactor)” value worked out at 98%.

For `CC(C)[C@H](Nc1ncnc2[nH]c(-c3cnn(C)c3C#N)cc12)c1ccc2c(c1)S(=O)(=O)CCC2`, in data set [1], the half-life was 1.8 min, the intrinsic clearance (microsomal CLint) came out at 935 µL/min/mg, the Remaining amounted to 0% and the “Remaining (without cofactor)” value is 101%. Moreover, in data set [2], the half-life stood at 5.4 min, the microsomal CLint was 311 µL/min/mg, the Remaining is 1% and the “Remaining (without cofactor)” value was found to be 90%.
